# Positions count from the first letter of the chain named. Read-outs that look alike come from different tables or passages of the source.
# Columns and labels:
# Assay in all cases: URAT1 uric acid transport activity assay
# Assay type in all cases: cell-based
# [1] = target: T1, r-V25M rURAT1 point mutant (Rattus norvegicus, UniProt Q3ZAV1, V25M)
# T1 construct: expressed in transfected cells; host or cells: HEK-293T
# T1 sequence (Q3ZAV1 1-553 V25M): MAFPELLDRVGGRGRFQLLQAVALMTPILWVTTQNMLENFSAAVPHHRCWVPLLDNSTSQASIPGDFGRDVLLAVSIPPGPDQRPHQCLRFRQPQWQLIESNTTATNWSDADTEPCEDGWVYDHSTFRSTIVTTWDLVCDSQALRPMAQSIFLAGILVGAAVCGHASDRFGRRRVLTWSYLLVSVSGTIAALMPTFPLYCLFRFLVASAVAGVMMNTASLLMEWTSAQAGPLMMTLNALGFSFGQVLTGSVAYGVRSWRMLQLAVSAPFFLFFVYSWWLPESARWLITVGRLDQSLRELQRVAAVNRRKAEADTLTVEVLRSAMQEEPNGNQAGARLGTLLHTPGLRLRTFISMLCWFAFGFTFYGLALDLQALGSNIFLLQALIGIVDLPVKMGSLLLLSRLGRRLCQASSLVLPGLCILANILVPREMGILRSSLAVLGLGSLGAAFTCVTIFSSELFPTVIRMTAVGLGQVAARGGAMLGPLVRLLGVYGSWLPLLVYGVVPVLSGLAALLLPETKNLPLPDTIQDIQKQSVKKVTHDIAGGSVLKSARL
# Method in brief: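 Readout: 14C-uric acid uptake (100 μM, 10 min) in cells transiently transfected one day earlier with mutant rURAT1. Serially diluted inhibitors were added 5 min before substrate. Triplicate points, four-parameter logistic fit for IC50.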
# [2] = target: T2, rat URAT1 (rURAT1 WT) (Rattus norvegicus, UniProt Q3ZAV1)
# T2 sequence (Q3ZAV1 1-553): T1 sequence (Q3ZAV1 1-553 V25M) with M25V
# [3] = target: T3, r-N35S/Y365F/M481I rURAT1 triple point mutant (Rattus norvegicus, UniProt Q3ZAV1, M481I/N35S/Y365F)
# T3 construct: hURAT1 and rURAT1 are 553 amino acid proteins with 12 transmembrane segments; expressed in transfected cells; host or cells: HEK-293T
# T3 sequence (Q3ZAV1 1-553 N35S/Y365F/M481I): T1 sequence (Q3ZAV1 1-553 V25M) with M25V, N35S, Y365F, M481I
# Method in brief: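 Cells expressing site-directed rat URAT1 mutants were exposed to inhibitor dilutions for 5 minutes before radiolabelled uric acid (100 μM) was added for 10 minutes. Potency was derived by nonlinear regression of log inhibitor versus response.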
# [4] = rURAT1 WT, MES pH 5.5, 100 μM 14C-uric acid, read-out: IC50 (uric acid transport)
smiles,measurement,setting,value
CCc1oc2ccccc2c1C(=O)c1cc(Br)c(O)c(Br)c1 [benzbromarone],IC50,[1],11 ± 2.7 µM
same,IC50,[2],26 µM
same,IC50,[3],0.61 ± 0.04 µM
O=c1[nH]c(=O)c2[nH]c(=O)[nH]c2[nH]1 [uric acid],IC50,[2]; [4],2630 µM
O=C1C(CC[S+]([O-])c2ccccc2)C(=O)N(c2ccccc2)N1c1ccccc1 (centres unmarked) [sulfinpyrazone],fold increased affinity of r-V25M compared to rURAT1,[1]; from IC50 values,49 fold
same,IC50,"[1]; r-V25M, HEPES pH 7.3, 100 μM 14C-uric acid, read-out: IC50 (uric acid transport)",14 ± 2.3 µM
same,IC50,"[2]; rURAT1 WT, HEPES pH 7.3, 100 μM 14C-uric acid, read-out: IC50 (uric acid transport)",680 µM
same,IC50,"[3]; r-N35S/Y365F/M481I, HEPES pH 7.3, 100 μM 14C-uric acid, read-out: IC50 (uric acid transport)",49 ± 2.2 µM
"O=C(O)CSc1nnc(Br)n1-c1ccc(C2CC2)c2ccccc12 [lesinurad, 2-((5-bromo-4-(4-cyclopropylnaphthalen-1-yl)-4H-1,2,4-triazol-3-yl)thio)acetic acid]",IC50,"[1]; r-V25M, MES pH 5.5, 100 μM 14C-uric acid, read-out: IC50 (uric acid transport)",59 ± 17 µM
same,IC50,[2]; [4],81 µM
same,IC50,"[3]; r-N35S/Y365F/M481I, MES pH 5.5, 100 μM 14C-uric acid, read-out: IC50 (uric acid transport)",1.2 ± 0.14 µM

# Source: article PMC5054527, “Mechanism of high affinity inhibition of the human urate transporter URAT1” (Scientific Reports, 2016)
